Assay results from patent publication US10130693B2, “Peptides, combination of peptides and scaffolds for use in immunotherapeutic treatment of various cancers” (Immatics Biotechnologies GmbH, priority 2015, dated 2018).

Tested on: HLA-A*24
Test: MHC binding assay, UV-ligand exchange with beta2m ELISA (exchange yield), HLA-A*24
Parameters: species or system human
Settings: binding to HLA-A*24, UV-ligand exchange
Source text: Candidate peptides for T cell based therapies according to the present invention were further tested for their MHC binding capacity (affinity). The individual peptide-MHC complexes were produced by UV-ligand exchange, where a UV-sensitive peptide is cleaved upon UV-irradiation, and exchanged with the peptide of interest as analyzed. Only peptide candidates that can effectively bind and stabilize the peptide-receptive MHC molecules prevent dissociation of the MHC complexes. To determine the yield of the exchange reaction, an ELISA was performed based on the detection of the light chain (β2m) of stabilized MHC complexes. The assay was performed as generally described in Rodenko et al. (Rodenko et al., 2006).
96 well MAXISorp plates (NUNC) were coated over night with 2 ug/ml streptavidin in PBS at room temperature, washed 4× and blocked for 1 h at 37° C. in 2% BSA containing blocking buffer. […] Peptide-MHC monomers of the UV-exchange reaction were diluted 100 fold in blocking buffer. Samples were incubated for 1 h at 37° C., washed four times, incubated with 2 ug/ml HRP conjugated anti-β2m for 1h at 37° C., washed again and detected with TMB solution that is stopped with […]. Absorption was measured at 450 nm. Candidate peptides that show a high exchange yield (preferably higher than 50%, most preferred higher than 75%) are generally preferred for a generation and production of antibodies or fragments thereof, and/or T cell receptors or fragments thereof, as they show sufficient avidity to the MHC molecules and prevent dissociation of the MHC complexes.

| Substance | Peptide exchange (MHC class I binding score, peptide exchange yield) |
| --- | --- |
| 195 (AYIKGGWIL; listed as Homo sapiens) [compound 195] | +++ (50%-75% = +++) |
| 196 (GYIRGSWQF; listed as Homo sapiens) [compound 196] | ++++ (>=75% = ++++) |
| 197 (IFTDIFHYL; listed as Homo sapiens) [compound 197] | ++++ (>=75% = ++++) |
| 198 (DYVGFTLKI; listed as Homo sapiens) [compound 198] | ++ (20%-49% = ++) |
| 199 (SYLNHLNNL; listed as Homo sapiens) [compound 199] | +++ (50%-75% = +++) |
| 200 (VFIHHLPQF; listed as Homo sapiens) [compound 200] | +++ (50%-75% = +++) |
| 201 (GYNPNRVFF; listed as Homo sapiens) [compound 201] | +++ (50%-75% = +++) |
| 202 (RYVEGIVSL; listed as Homo sapiens) [compound 202] | +++ (50%-75% = +++) |
| 204 (EYLSTCSKL; listed as Homo sapiens) [compound 204] | +++ (50%-75% = +++) |
| 205 (VYPVVLNQI; listed as Homo sapiens) [compound 205] | +++ (50%-75% = +++) |
| 206 (NYLDVATFL; listed as Homo sapiens) [compound 206] | ++++ (>=75% = ++++) |
| 207 (LYSDAFKFIVF; listed as Homo sapiens) [compound 207] | +++ (50%-75% = +++) |
| 208 (TYLEKIDGF; listed as Homo sapiens) [compound 208] | ++++ (>=75% = ++++) |
| 209 (AFIETPIPLF; listed as Homo sapiens) [compound 209] | ++++ (>=75% = ++++) |
| 210 (IYAGVGEFSF; listed as Homo sapiens) [compound 210] | ++++ (>=75% = ++++) |
| 211 (VFKSEGAYF; listed as Homo sapiens) [compound 211] | ++++ (>=75% = ++++) |
| 212 (SYAPPSEDLF; listed as Homo sapiens) [compound 212] | ++ (20%-49% = ++) |
| 213 (SYAPPSEDLFL; listed as Homo sapiens) [compound 213] | ++ (20%-49% = ++) |
| 214 (KYLMELTLI; listed as Homo sapiens) [compound 214] | +++ (50%-75% = +++) |

| Substance | Peptide exchange (MHC class I binding score, peptide exchange yield) |
| --- | --- |
| 215 (SYVASFFLL; listed as Homo sapiens) [compound 215] | ++ (20%-49% = ++) |
| 216 (FYVNVKEQF; listed as Homo sapiens) [compound 216] | +++ (50%-75% = +++) |
| 217 (IYISNSIYF; listed as Homo sapiens) [compound 217] | ++++ (>=75% = ++++) |
| 218 (LYSELNKWSF; listed as Homo sapiens) [compound 218] | +++ (50%-75% = +++) |
| 219 (SYLKAVFNL; listed as Homo sapiens) [compound 219] | +++ (50%-75% = +++) |
| 220 (SYSEIKDFL; listed as Homo sapiens) [compound 220] | ++++ (>=75% = ++++) |
| 221 (KYIGNLDLL; listed as Homo sapiens) [compound 221] | ++++ (>=75% = ++++) |
| 223 (TFITQSPLL; listed as Homo sapiens) [compound 223] | ++++ (>=75% = ++++) |
| 224 (PYFFANQEF; listed as Homo sapiens) [compound 224] | +++ (50%-75% = +++) |
| 225 (TYTNTLERL; listed as Homo sapiens) [compound 225] | +++ (50%-75% = +++) |
| 226 (MYLKLVQLF; listed as Homo sapiens) [compound 226] | ++ (20%-49% = ++) |
| 227 (IYRFITERF; listed as Homo sapiens) [compound 227] | +++ (50%-75% = +++) |
| 228 (IYQYVADNF; listed as Homo sapiens) [compound 228] | +++ (50%-75% = +++) |
| 229 (IYQFVADSF; listed as Homo sapiens) [compound 229] | +++ (50%-75% = +++) |
| 230 (TYGMVMVTF; listed as Homo sapiens) [compound 230] | +++ (50%-75% = +++) |
| 231 (AFADVSVKF; listed as Homo sapiens) [compound 231] | ++++ (>=75% = ++++) |
| 232 (YYLSDSPLL; listed as Homo sapiens) [compound 232] | +++ (50%-75% = +++) |
| 233 (QYLTAAALHNL; listed as Homo sapiens) [compound 233] | +++ (50%-75% = +++) |
| 234 (SYLPAIWLL; listed as Homo sapiens) [compound 234] | +++ (50%-75% = +++) |

| Substance | Peptide exchange (MHC class I binding score, peptide exchange yield) |
| --- | --- |
| 235 (VYKDSIYYI; listed as Homo sapiens) [compound 235] | +++ (50%-75% = +++) |
| 236 (VYLPKIPSW; listed as Homo sapiens) [compound 236] | +++ (50%-75% = +++) |
| 237 (KYVGQLAVL; listed as Homo sapiens) [compound 237] | +++ (50%-75% = +++) |
| 239 (VYAIFRILL; listed as Homo sapiens) [compound 239] | +++ (50%-75% = +++) |
| 240 (YYFFVQEKI; listed as Homo sapiens) [compound 240] | +++ (50%-75% = +++) |
| 241 (SYVKVLHHL; listed as Homo sapiens) [compound 241] | +++ (50%-75% = +++) |
| 242 (VYGEPRELL; listed as Homo sapiens) [compound 242] | +++ (50%-75% = +++) |
| 243 (SYLELANTL; listed as Homo sapiens) [compound 243] | +++ (50%-75% = +++) |
| 244 (VHFEDTGKTLLF; listed as Homo sapiens) [compound 244] | +++ (50%-75% = +++) |
| 245 (LYPQLFVVL; listed as Homo sapiens) [compound 245] | +++ (50%-75% = +++) |
| 246 (KYLSVQLTL; listed as Homo sapiens) [compound 246] | ++ (20%-49% = ++) |
| 247 (SFTKTSPNF; listed as Homo sapiens) [compound 247] | +++ (50%-75% = +++) |
| 248 (AFPTFSVQL; listed as Homo sapiens) [compound 248] | ++++ (>=75% = ++++) |
| 249 (RYHPTTCTI; listed as Homo sapiens) [compound 249] | ++++ (>=75% = ++++) |
| 250 (KYPDIASPTF; listed as Homo sapiens) [compound 250] | ++ (20%-49% = ++) |
| 251 (VYTKALSSL; listed as Homo sapiens) [compound 251] | +++ (50%-75% = +++) |
| 252 (AFGQETNVPLNNF; listed as Homo sapiens) [compound 252] | ++++ (>=75% = ++++) |
| 253 (IYGFFNENF; listed as Homo sapiens) [compound 253] | +++ (50%-75% = +++) |
| 254 (KYLESSATF; listed as Homo sapiens) [compound 254] | +++ (50%-75% = +++) |
